{"source": "patent US6395727B1", "about": "“Method of treating Bulimia Nervosa and related eating disorders by administration of atypical antipsychotic medications” (The Cincinnati Children's Hospital Research Foundation, priority 1999, dated 2002)", "key": {"[1]": {"tested_on": "Bulimia Nervosa", "assay": "therapeutic trial of an antidepressant (fluoxetine) before the risperidone trial, same patient", "assay_type": "in vivo, human", "conditions": "fluoxetine 20 mg PO qam, approximately 4 months"}, "[2]": {"tested_on": "Bulimia Nervosa"}, "[3]": {"conditions": "cited from earlier work"}, "[4]": {"conditions": "some mammals; cited from earlier work"}, "[5]": {"conditions": "week four, risperidone 1.5 mg PO at bedtime, fluoxetine 20 mg PO QAM continued"}}, "note": "Where two headings read alike, the source gives them in different places."}
{"molecule": "CNCCC(Oc1ccc(C(F)(F)F)cc1)c1ccccc1", "note": "(stereo not drawn) [fluoxetine]", "values": [{"measurement": "bingeing and purging", "setting": "[1]", "result": "has not subsided"}, {"measurement": "depressive symptoms (Zung Depression Scores and self-report)", "setting": "[1]", "result": "remission of depressive symptoms"}]}
{"molecule": "Cc1nc2n(c(=O)c1CCN1CCC(c3noc4cc(F)ccc34)CC1)CCCC2", "note": "[risperidone, 3-[2-[4-(6-fluoro-1,2-benzisoxazol-3-yl)-1-piperidinyl]ethyl]-6,7,8,9-tetrahydro-2-methyl-4H-pyrido[1,2-a]pyrimidin-4-one]", "values": [{"measurement": "cessation of symptoms", "setting": "[2]; after two weeks, risperidone 0.5 mg PO twice per day, fluoxetine 20 mg PO QAM continued", "result": "has not had any cessation of symptoms"}, {"measurement": "improvement in bulimic symptomatology (journal entries)", "setting": "[2]; conclusion of 8-week study, risperidone 1.5 mg PO QHS plus fluoxetine", "result": 50, "unit": "%"}, {"measurement": "body image scores improved", "setting": "[2]; conclusion of 8-week study, risperidone 1.5 mg PO QHS plus fluoxetine, self-rating scale", "result": 50, "unit": "%"}, {"measurement": "differences in baseline and final scores of the anxiety and depression scales", "setting": "[2]; conclusion of 8-week study, risperidone 1.5 mg PO QHS plus fluoxetine, self-rating scales", "result": "no appreciable differences"}, {"measurement": "reduction in bulimic symptomatology (patient's journal)", "setting": "[2]; [5]", "result": 30, "unit": "%"}, {"measurement": "side effects to the medications", "setting": "[2]; [5]", "result": "no side effects"}, {"measurement": "weight gain", "setting": "[3]; in vivo", "result": "minimal"}, {"measurement": "white blood cell count", "setting": "[3]; in vivo", "result": "remains unaffected"}]}
{"molecule": "OCCOCCN1CCN(C2=Nc3ccccc3Sc3ccccc32)CC1", "note": "[Quetiapine, quetiapine]", "values": [{"measurement": "cataract formation", "setting": "[4]", "result": "cause cataract formation"}]}
{"molecule": "Cc1cc2c(s1)Nc1ccccc1N=C2N1CCN(C)CC1", "note": "[Olanzapine, olanzapine]", "values": [{"measurement": "weight gain", "setting": "[3]; in some cases", "result": "up to 1 pound per week"}]}
